This is an account of results in ChEMBL document CHEMBL4145610, “Total Syntheses of Lobaric Acid and Its Derivatives from the Antarctic Lichen Stereocaulon alpinum” (J Nat Prod, 2018).

This assay addresses T1, Tyrosine-protein phosphatase non-receptor type 1 (Homo sapiens, UniProt P18031).
T1 sequence (P18031 whole entry): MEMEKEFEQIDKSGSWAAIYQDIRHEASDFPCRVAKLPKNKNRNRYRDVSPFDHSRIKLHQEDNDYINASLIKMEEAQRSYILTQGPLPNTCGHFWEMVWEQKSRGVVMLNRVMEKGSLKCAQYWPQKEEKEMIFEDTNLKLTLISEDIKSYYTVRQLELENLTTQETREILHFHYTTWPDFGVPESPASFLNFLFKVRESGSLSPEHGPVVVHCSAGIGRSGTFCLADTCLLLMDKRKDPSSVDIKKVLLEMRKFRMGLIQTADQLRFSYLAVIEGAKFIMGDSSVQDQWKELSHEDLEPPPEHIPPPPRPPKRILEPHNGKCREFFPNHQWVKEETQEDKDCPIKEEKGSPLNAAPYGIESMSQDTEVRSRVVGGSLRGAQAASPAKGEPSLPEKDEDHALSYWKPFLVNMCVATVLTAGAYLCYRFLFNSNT
In words: Inhibition of PTP1B (1 to 298 residues) (unknown origin) using p-nitrophenylphosphate as substrate after 30 mins.
What is called IC50 is the point on the concentration scale where inhibition reaches its midpoint. Read a low IC50 as greater potency in that assay. Regarding `CCC/C=C1\OC(=O)c2c(Oc3c(O)cc(O)c(C(=O)O)c3CCCCC)cc(OC)cc21`, the IC50 is 0.5 µM. `CCCCCc1c(Oc2cc(OC)cc3c2C(=O)OC3(O)CCCC)c(O)cc(O)c1C(=O)O` (stereo not given) showed an IC50 of 0.9 µM. Consider `CCCCCc1cc(O)cc(O)c1Oc1cc(OC)cc2c1C(=O)OC2(O)CCCC` (stereo not given) [SAKISACAULON A], for which half-maximal inhibition (IC50) was put at 1.7 µM. As to `CCCCCc1c(Oc2cc(OC)cc3c2C(=O)OC3(CCCC)OC)c(O)cc(O)c1C(=O)O` (stereo not given), 1.5 µM corresponded to half-maximal inhibition (IC50). To `CCCCCc1c2c(cc(O)c1C(=O)O)OC(=O)c1c(cc(OC)cc1C(=O)CCCC)O2` [LOBARIC ACID] belongs 0.8 µM.
